According to the supplement of paper PMC10883282:
± gives the standard deviation of the averaged measurements.

Experiments:
Assay in all cases: relative viability vs DMSO control (72 h) (fraction); higher = more viable cells
SW872 = test system: SW872
Procedure, shortened: (§1)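 Serially diluted compound, 2.5 µl from source plates spanning 10 mM to 0.0002 mM, was added 24 h after sarcoma cell lines were seeded in 384-well plates at densities targeting 80–90% confluence. Plates then sat 72 h at 37 °C, 5% CO2, with 0.1% DMSO vehicle and a 5 µM positive control. Relative viability came from ATPLite as percent growth, averaged over up to triplicate wells, and was rescaled with 1 as full and 0 as none.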

A204 = test system: A204
Procedure, shortened: as §1

SYO-1 = test system: SYO-1
Procedure, shortened: as §1

SK-ES-1 = test system: SK-ES-1
Procedure, shortened: as §1

SW982 = test system: SW982
Procedure, shortened: as §1

HS729 = test system: HS729
Procedure, shortened: as §1

KHOS-240S = test system: KHOS-240S
Procedure, shortened: as §1

SW1353 = test system: SW1353
Procedure, shortened: as §1

G401 = test system: G401
Procedure, shortened: as §1

SW684 = test system: SW684
Procedure, shortened: as §1

MES-SA = test system: MES-SA
Procedure, shortened: as §1

SK-LMS-1 = test system: SK-LMS-1
Procedure, shortened: as §1

CCOc1cc2ncc(C#N)c(Nc3ccc(OCc4ccccn4)c(Cl)c3)c2cc1NC(=O)/C=C/[C@H]1CCCN1C [Pyrotinib]
relative viability (SW872; 5.081 pM): 1.05 ± 0.049 | relative viability (SW872; 15.24 pM): 1.06 ± 0.054 | relative viability (SW872; 45.72 pM): 1.06 ± 0.044 | relative viability (SW872; 0.000137174 µM): 1.06 ± 0.032 | relative viability (SW872; 0.000411523 µM): 1.07 ± 0.038 | relative viability (SW872; 0.00123457 µM): 1.05 ± 0.016 | relative viability (SW872; 0.0037037 µM): 0.987 ± 0.077 | relative viability (SW872; 0.0111111 µM): 1.01 ± 0.057 | relative viability (SW872; 0.0333333 µM): 1.04 ± 0.016 | relative viability (SW872; 0.1 µM): 0.987 ± 0.046 | relative viability (SW872; 0.3 µM): 0.913 ± 0.049 | relative viability (A204; 5.081 pM): 1.04 ± 0.042 | relative viability (A204; 15.24 pM): 1.07 ± 0.064 | relative viability (A204; 45.72 pM): 1.08 ± 0.048 | relative viability (A204; 0.000137174 µM): 1.04 ± 0.025 | relative viability (A204; 0.000411523 µM): 1.06 ± 0.071 | relative viability (A204; 0.00123457 µM): 1.07 ± 0.034 | relative viability (A204; 0.0037037 µM): 1.09 ± 0.069 | relative viability (A204; 0.0111111 µM): 1.11 ± 0.043 | relative viability (A204; 0.0333333 µM): 1.07 ± 0.032 | relative viability (A204; 0.1 µM): 1.1 ± 0.052 | relative viability (A204; 0.3 µM): 1.06 ± 0.013 | relative viability (SYO-1; 5.081 pM): 1.01 ± 0.024 | relative viability (SYO-1; 15.24 pM): 0.951 ± 0.038 | relative viability (SYO-1; 45.72 pM): 0.958 ± 0.014 | relative viability (SYO-1; 0.000137174 µM): 0.943 ± 0.043 | relative viability (SYO-1; 0.000411523 µM): 0.92 ± 0.062 | relative viability (SYO-1; 0.00123457 µM): 0.948 ± 0.067 | relative viability (SYO-1; 0.0037037 µM): 0.858 ± 0.059 | relative viability (SYO-1; 0.0111111 µM): 0.9 ± 0.025 | relative viability (SYO-1; 0.0333333 µM): 0.896 ± 0.059 | relative viability (SYO-1; 0.1 µM): 0.862 ± 0.034 | relative viability (SYO-1; 0.3 µM): 0.89 ± 0.07 | relative viability (SK-ES-1; 5.081 pM): 0.989 ± 0.035 | relative viability (SK-ES-1; 15.24 pM): 1.02 ± 0.041 | relative viability (SK-ES-1; 45.72 pM): 1.07 ± 0.028 | relative viability (SK-ES-1; 0.000137174 µM): 1.07 ± 0.045 | relative viability (SK-ES-1; 0.000411523 µM): 1.02 ± 0.034 | relative viability (SK-ES-1; 0.00123457 µM): 1.04 ± 0.041 | relative viability (SK-ES-1; 0.0037037 µM): 1.02 ± 0.047 | relative viability (SK-ES-1; 0.0111111 µM): 1.04 ± 0.044 | relative viability (SK-ES-1; 0.0333333 µM): 0.992 ± 0.058 | relative viability (SK-ES-1; 0.1 µM): 0.987 ± 0.042 | relative viability (SK-ES-1; 0.3 µM): 0.8694 ± 0.0074 | relative viability (SW982; 5.081 pM): 1 ± 0.021 | relative viability (SW982; 15.24 pM): 1.03 ± 0.039 | relative viability (SW982; 45.72 pM): 1.05 ± 0.051 | relative viability (SW982; 0.000137174 µM): 1.09 ± 0.032 | relative viability (SW982; 0.000411523 µM): 1.05 ± 0.025 | relative viability (SW982; 0.00123457 µM): 1.04 ± 0.049 | relative viability (SW982; 0.0037037 µM): 1.03 ± 0.047 | relative viability (SW982; 0.0111111 µM): 1.03 ± 0.032 | relative viability (SW982; 0.0333333 µM): 1.03 ± 0.067 | relative viability (SW982; 0.1 µM): 1.02 ± 0.022 | relative viability (SW982; 0.3 µM): 0.952 ± 0.036 | relative viability (HS729; 5.081 pM): 0.989 ± 0.038 | relative viability (HS729; 15.24 pM): 0.917 ± 0.048 | relative viability (HS729; 45.72 pM): 0.962 ± 0.06 | relative viability (HS729; 0.000137174 µM): 0.9073 ± 0.0027 | relative viability (HS729; 0.000411523 µM): 0.875 ± 0.048 | relative viability (HS729; 0.00123457 µM): 0.866 ± 0.061 | relative viability (HS729; 0.0037037 µM): 0.857 ± 0.036 | relative viability (HS729; 0.0111111 µM): 0.918 ± 0.043 | relative viability (HS729; 0.0333333 µM): 0.91 ± 0.069 | relative viability (HS729; 0.1 µM): 0.858 ± 0.009 | relative viability (HS729; 0.3 µM): 0.808 ± 0.011 | relative viability (KHOS-240S; 5.081 pM): 1.07 ± 0.014 | relative viability (KHOS-240S; 15.24 pM): 1.08 ± 0.036 | relative viability (KHOS-240S; 45.72 pM): 1.06 ± 0.026 | relative viability (KHOS-240S; 0.000137174 µM): 1.06 ± 0.054 | relative viability (KHOS-240S; 0.000411523 µM): 1.05 ± 0.018 | relative viability (KHOS-240S; 0.00123457 µM): 1.08 ± 0.026 | relative viability (KHOS-240S; 0.0037037 µM): 1.07 ± 0.044 | relative viability (KHOS-240S; 0.0111111 µM): 1.06 ± 0.058 | relative viability (KHOS-240S; 0.0333333 µM): 1.09 ± 0.075 | relative viability (KHOS-240S; 0.1 µM): 1.08 ± 0.041 | relative viability (KHOS-240S; 0.3 µM): 1.05 ± 0.03 | relative viability (SW1353; 5.081 pM): 1.06 ± 0.036 | relative viability (SW1353; 15.24 pM): 1.05 ± 0.025 | relative viability (SW1353; 45.72 pM): 1.03 ± 0.023 | relative viability (SW1353; 0.000137174 µM): 0.994 ± 0.018 | relative viability (SW1353; 0.000411523 µM): 1.01 ± 0.027 | relative viability (SW1353; 0.00123457 µM): 1.04 ± 0.041 | relative viability (SW1353; 0.0037037 µM): 1.02 ± 0.031 | relative viability (SW1353; 0.0111111 µM): 1.02 ± 0.089 | relative viability (SW1353; 0.0333333 µM): 0.947 ± 0.033 | relative viability (SW1353; 0.1 µM): 0.889 ± 0.026 | relative viability (SW1353; 0.3 µM): 0.791 ± 0.029 | relative viability (G401; 5.081 pM): 1.04 ± 0.035 | relative viability (G401; 15.24 pM): 1.03 ± 0.016 | relative viability (G401; 45.72 pM): 1.03 ± 0.041 | relative viability (G401; 0.000137174 µM): 1.05 ± 0.037 | relative viability (G401; 0.000411523 µM): 1.06 ± 0.0079 | relative viability (G401; 0.00123457 µM): 1.02 ± 0.035 | relative viability (G401; 0.0037037 µM): 1.02 ± 0.021 | relative viability (G401; 0.0111111 µM): 1.024 ± 0.0064 | relative viability (G401; 0.0333333 µM): 1.02 ± 0.049 | relative viability (G401; 0.1 µM): 1.02 ± 0.049 | relative viability (G401; 0.3 µM): 1.01 ± 0.013 | relative viability (SW684; 5.081 pM): 1.15 ± 0.079 | relative viability (SW684; 15.24 pM): 1.24 ± 0.029 | relative viability (SW684; 45.72 pM): 1.221 ± 0.0063 | relative viability (SW684; 0.000137174 µM): 1.188 ± 0.0051 | relative viability (SW684; 0.000411523 µM): 1.19 ± 0.025 | relative viability (SW684; 0.00123457 µM): 1.17 ± 0.033 | relative viability (SW684; 0.0037037 µM): 1.21 ± 0.048 | relative viability (SW684; 0.0111111 µM): 1.19 ± 0.12 | relative viability (SW684; 0.0333333 µM): 1.15 ± 0.056 | relative viability (SW684; 0.1 µM): 1.17 ± 0.051 | relative viability (SW684; 0.3 µM): 1.1 ± 0.036 | relative viability (MES-SA; 5.081 pM): 0.967 ± 0.018 | relative viability (MES-SA; 15.24 pM): 0.957 ± 0.026 | relative viability (MES-SA; 45.72 pM): 0.9512 ± 0.0085 | relative viability (MES-SA; 0.000137174 µM): 0.959 ± 0.036 | relative viability (MES-SA; 0.000411523 µM): 0.971 ± 0.043 | relative viability (MES-SA; 0.00123457 µM): 0.965 ± 0.024 | relative viability (MES-SA; 0.0037037 µM): 0.948 ± 0.023 | relative viability (MES-SA; 0.0111111 µM): 0.954 ± 0.022 | relative viability (MES-SA; 0.0333333 µM): 0.936 ± 0.051 | relative viability (MES-SA; 0.1 µM): 0.91 ± 0.039 | relative viability (MES-SA; 0.3 µM): 0.863 ± 0.021 | relative viability (SK-LMS-1; 5.081 pM): 1.06 ± 0.042 | relative viability (SK-LMS-1; 15.24 pM): 1.06 ± 0.049 | relative viability (SK-LMS-1; 45.72 pM): 1.06 ± 0.037 | relative viability (SK-LMS-1; 0.000137174 µM): 1.07 ± 0.06 | relative viability (SK-LMS-1; 0.000411523 µM): 1.08 ± 0.03 | relative viability (SK-LMS-1; 0.00123457 µM): 1.06 ± 0.036 | relative viability (SK-LMS-1; 0.0037037 µM): 1.09 ± 0.067 | relative viability (SK-LMS-1; 0.0111111 µM): 1.08 ± 0.035 | relative viability (SK-LMS-1; 0.0333333 µM): 1.07 ± 0.026 | relative viability (SK-LMS-1; 0.1 µM): 1.03 ± 0.049 | relative viability (SK-LMS-1; 0.3 µM): 1 ± 0.014
